The supplement of paper PMC10307832

Assays:
Experiment in all cases: relative viability (nuclei count vs DMSO), 5 days (fraction); higher = more cells survive
BAM7 = compound: CCOC1=CC=CC=C1N=NC2=C(NN(C2=O)C3=NC(=CS3)C4=CC=CC=C4)C [BAM7]
Summary of the method: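 On vehicle-anchored 1536-well plates, lung cancer cell lines held overnight at 37 °C were pinned with five library-drug doses (not always all listed) spaced by √10. With no medium change over 5 days, they were then fixed, permeabilised and Hoechst-stained in one step and imaged at 4×. MetaXpress counted nuclei, and viability is the median across plates of treated-well over vehicle-well nuclei. Acceptance needed control CV below 25% and at least one doubling.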

BAM7 + Bortezomib = compound: CCOC1=CC=CC=C1N=NC2=C(NN(C2=O)C3=NC(=CS3)C4=CC=CC=C4)C [BAM7] + CC(C)C[C@H](NC(=O)[C@H](Cc1ccccc1)NC(=O)c1cnccn1)B(O)O [Bortezomib] (partner 0.002 µM)
Summary of the method: (§1)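 A single step with final 0.05% Triton X-100, 1% formaldehyde and 1 ug/ml Hoechst fixed the cells and stained nuclei 5 days after treatment. Lung cancer cell lines in 1536-well plates had been treated by pin tool the day after seeding with one drug alone or a fixed anchor-drug dose plus five library-drug doses (not always all listed) in √10 steps, and nuclei were counted on 4× images. Relative viability is the ratio of nuclei in treated wells to nuclei in vehicle wells, taken as the median of duplicate plates.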

BAM7 + Pemetrexed = compound: CCOC1=CC=CC=C1N=NC2=C(NN(C2=O)C3=NC(=CS3)C4=CC=CC=C4)C [BAM7] + Nc1nc2[nH]cc(CCc3ccc(C(=O)N[C@@H](CCC(=O)O)C(=O)O)cc3)c2c(=O)[nH]1 [Pemetrexed] (partner 0.2 µM)
Summary of the method: as §1

[1] = compound: CCn1c(-c2nonc2N)nc2c(C#CC(C)(C)O)ncc(OC[C@H]3CCCNC3)c21 + N=C(N)NC(=N)NCCc1ccccc1 [Phenformin] (partner 250 µM)
Summary of the method: as §1

| Cell Line | relative viability (BAM7; 0.5 µM) | relative viability (BAM7; 5 µM) | relative viability (BAM7; 15.81 µM) | relative viability (BAM7; 50 µM) | relative viability (BAM7 + Bortezomib; first compound 0.5 µM) | relative viability (BAM7 + Bortezomib; first compound 5 µM) | relative viability (BAM7 + Bortezomib; first compound 15.81 µM) | relative viability (BAM7 + Bortezomib; first compound 50 µM) | relative viability (BAM7 + Pemetrexed; first compound 0.5 µM) | relative viability (BAM7 + Pemetrexed; first compound 5 µM) | relative viability (BAM7 + Pemetrexed; first compound 15.81 µM) | relative viability (BAM7 + Pemetrexed; first compound 50 µM) | relative viability ([1]; first compound 0.01 µM) | relative viability ([1]; first compound 0.03162 µM) | relative viability ([1]; first compound 0.1 µM) | relative viability ([1]; first compound 0.3162 µM) | relative viability ([1]; first compound 1 µM) |
| --- | --- | --- | --- | --- | --- | --- | --- | --- | --- | --- | --- | --- | --- | --- | --- | --- | --- |
| HCC-827 | 1.04 | 1.05 | 1.06 | 1.03 | 1.1 | 1.17 | 1.05 | 0.917 | 0.27 | 0.25 | 0.28 | 0.247 | 0.395 | 0.37 | 0.388 | 0.402 | 0.402 |
| HOP-62 | 1.03 | 1.09 | 1.07 | 1.07 | 0.854 | 0.98 | 1.05 | 0.847 | 0.269 | 0.356 | 0.328 | 0.371 | 0.662 | 0.687 | 0.635 | 0.649 | 0.687 |
| IA-LM | 0.988 | 0.979 | 0.85 | 1.15 | 0.789 | 0.98 | 0.756 | 0.777 |  |  |  |  |  |  |  |  |  |
| LC-2-ad | 0.961 | 1 | 0.939 | 1.01 | 1.05 | 0.974 | 0.957 | 1 | 0.297 | 0.277 | 0.293 | 0.29 | 0.571 | 0.523 | 0.556 | 0.537 | 0.614 |
| LCLC-97TM1 | 1.12 | 1.12 | 1.09 | 1.06 | 0.721 | 0.608 | 0.898 | 0.76 | 0.19 | 0.147 |  | 0.159 | 0.375 | 0.49 | 0.444 | 0.435 | 0.427 |
| LCLC-103H | 0.966 | 1.04 | 0.983 | 1.04 | 1.15 | 1.1 | 1.1 | 1.18 | 0.524 | 0.491 | 0.487 | 0.444 | 0.323 | 0.355 | 0.33 | 0.329 | 0.327 |
| LK-2 | 1.03 | 1.13 | 1.04 | 1.1 |  |  |  |  | 0.277 | 0.249 | 0.32 | 0.266 | 0.515 | 0.392 |  |  | 0.455 |
| LOU-NH91 | 0.974 | 1.06 | 0.939 | 0.973 | 0.476 | 0.508 | 0.546 | 0.486 | 0.347 | 0.436 | 0.392 | 0.346 | 0.683 | 0.566 | 0.686 | 0.607 | 0.635 |
| LU99A | 1.09 | 1.02 | 0.979 | 1.07 | 1.21 | 1.22 | 1.34 | 1.15 | 0.146 | 0.18 | 0.173 | 0.198 | 0.847 | 0.839 | 0.774 | 0.748 | 0.837 |
| LXF-289 | 1.06 | 1.07 | 1.01 | 0.929 | 1.07 | 1.1 | 1.02 | 1.01 | 1.01 | 0.994 | 0.918 | 0.865 | 0.511 | 0.54 | 0.507 | 0.511 | 0.534 |
| NCI-H358 | 0.96 | 1.19 | 0.942 | 0.912 |  |  |  |  |  | 0.177 | 0.166 | 0.159 | 0.39 | 0.321 | 0.338 | 0.315 | 0.32 |
| NCI-H522 | 0.981 | 1.07 | 1.01 | 1.07 |  |  |  |  | 1.13 | 1.09 | 1.25 | 0.998 | 0.636 | 0.648 | 0.629 | 0.576 | 0.624 |
| NCI-H727 | 0.962 | 0.811 | 0.881 | 0.937 | 0.832 | 1.14 | 0.916 | 0.739 |  |  |  |  | 0.468 | 0.461 | 0.618 | 0.515 | 0.502 |
| NCI-H1299 | 1.01 | 1.06 | 1.01 | 1.01 | 1.02 | 1.04 | 1.03 | 0.963 |  |  |  |  |  |  |  |  |  |
| NCI-H1395 | 0.884 | 1.01 | 0.944 | 1.1 |  |  |  |  | 0.856 | 0.91 | 0.857 | 1.07 | 0.417 | 0.416 | 0.418 | 0.376 | 0.388 |
| NCI-H1623 | 1.06 | 0.974 | 0.768 | 0.896 |  |  |  |  |  |  |  |  | 0.604 | 0.526 | 0.6 | 0.56 | 0.473 |
| NCI-H1648 | 0.786 | 0.754 | 0.608 | 0.708 |  |  |  |  | 0.874 | 0.88 | 0.677 | 1.03 |  |  |  |  |  |
| NCI-H1703 | 1.04 | 0.989 | 0.808 | 1 | 0.428 | 0.304 | 0.164 | 0.338 |  |  |  |  |  |  |  |  |  |
| NCI-H1793 | 0.963 | 0.838 | 0.899 | 1.03 |  |  |  |  | 0.931 | 0.728 | 0.809 | 1.13 | 0.339 | 0.436 | 0.371 | 0.331 | 0.401 |
| NCI-H1944 | 0.947 | 0.949 | 0.857 | 1 |  |  |  |  | 0.581 | 0.541 | 0.512 | 0.512 | 0.196 | 0.196 | 0.207 | 0.181 | 0.196 |
| NCI-H2170 | 0.972 | 0.993 | 0.904 | 0.958 |  |  |  |  | 0.252 | 0.281 | 0.251 | 0.269 | 0.44 | 0.429 | 0.416 | 0.429 | 0.382 |
| NCI-H2342 | 0.851 | 0.994 | 0.89 | 0.708 |  |  |  |  | 0.677 | 0.712 | 0.734 | 0.72 | 0.532 | 0.627 | 0.598 | 0.545 | 0.574 |
| SK-MES-1 | 1.04 | 1.08 | 0.973 | 1.03 |  |  |  |  | 0.919 | 0.906 | 0.814 | 0.866 | 0.654 | 0.642 | 0.66 | 0.617 | 0.673 |
| SW 900 | 0.781 | 0.826 | 0.708 | 1.03 |  |  |  |  |  | 0.44 |  | 0.505 | 0.505 | 0.621 | 0.671 | 0.601 | 0.49 |
